Reference: US8852618B2, “Insecticidal mixture containing gamma-cyhalothrin” (Syngenta Limited, priority 2001, dated 2014)
Values joined by “and” are separate entries in the source; they are usually repeats but may differ in a detail not shown here. Identical values can stand only once. Like-named read-outs stand apart in the source and are kept apart here.

Tests used:
Heliothis virescens = assay: Sprayed cotton leaf test, mortality of 1st instar larvae after 3 days
Method: (§1) For Heliothis and Spodoptera testing cotton leaves were sprayed in a Berkhard Potter Tower, left to dry for 1 hour and then placed on the top of pots containing twenty 1st instar Heliothis virescens/Spodoptera littoralis larvae. These were stored in a test holding room at 25° C. for 3 days and the test species assessed for mortality. For aphid testing Leaf discs were cut from excised Chinese cabbage leaves and placed on agar in test pots. R2 Myzus persicae were transferred from the culture on radish cotyledons and left overnight. The dried cotyledons were removed, leaving approximately 20-25 aphids on each leaf disc. The pots were sprayed in a Berkhard Potter Tower. Once dry, ventilated lids were placed on the top. These were stored in a Weiss Room at 20° C. for 3 days and the test species assessed for mortality. All tests included a Synperonic NP8 control. […] Any increase in the expected amount of mortality may be attributed to synergism. This is calculated in the following way: Expected mortality from mixture=% mortality of mixture partner A+(100%−% mortality of A)*(% mortality of mixture partner B). The results are set out in Tables I-III.

Myzus persicae = assay: Sprayed Chinese cabbage leaf disc aphid test, mortality after 3 days; conditions: in Brassica rapa, foliar, 72 h
Method: as §1

Spodoptera littoralis = assay: Sprayed cotton leaf test, mortality of 1st instar larvae after 3 days; conditions: for Observed % mortality Other ai: 3 days
Method: as §1

[1] = read-out: Observed % mortality Other
[2] = Spodoptera littoralis, in Gossypium hirsutum, 72 h, read-out: Observed % mortality Gamma
[3] = read-out: Observed % mortality Gamma

CC1(C)[C@H](C(=O)O[C@H](C#N)c2cccc(Oc3ccccc3)c2)[C@@H]1/C=C(\Cl)C(F)(F)F (racemic) [Lambda-cyhalothrin, lambda-cyhalothrin]
mortality at 0.25 ppm (Heliothis virescens; Heliothis virescens, in Gossypium hirsutum, 72 h, read-out: Observed % mortality Other ai, other ai alone 0.25 ppm): 46%
mortality at 0.5 ppm (Heliothis virescens; Heliothis virescens, in Gossypium hirsutum, 72 h, read-out: Observed % mortality Other ai, other ai alone 0.50 ppm): 50%
mortality at 1 ppm (Heliothis virescens; Heliothis virescens, in Gossypium hirsutum, 72 h, read-out: Observed % mortality Other ai, other ai alone 1.00 ppm): 46%
Observed % mortality Other ai (Heliothis virescens; other ai alone 0.50 ppm): 52%
Observed % mortality Other ai (Heliothis virescens; other ai alone 1.00 ppm): 52%
mortality at 0.125 ppm (Myzus persicae; [1]): 10%
mortality at 0.25 ppm (Myzus persicae; [1]): 4%
mortality at 0.5 ppm (Myzus persicae; [1]): 14%

CCOP(=S)(OCC)Oc1nc(Cl)c(Cl)cc1Cl [Chlorpyrifos, chlorpyrifos]
mortality at 2.5 ppm (Heliothis virescens; Heliothis virescens, in Gossypium hirsutum, 72 h, read-out: Observed % mortality Other ai, other ai alone 2.50 ppm): 36%
mortality at 5 ppm (Heliothis virescens; Heliothis virescens, in Gossypium hirsutum, 72 h, read-out: Observed % mortality Other ai, other ai alone 5.00 ppm): 29%
mortality at 10 ppm (Heliothis virescens; Heliothis virescens, in Gossypium hirsutum, 72 h, read-out: Observed % mortality Other ai, other ai alone 10.00 ppm): 44%

CC1(C)[C@H](C(=O)O[C@H](C#N)c2cccc(Oc3ccccc3)c2)[C@@H]1/C=C(\Cl)C(F)(F)F [Gamma, (S)-α-cyano-3-phenoxybenzyl (Z)-(1R,3R)-3-(2-chloro-3,3,3-trifluoro-1-propenyl)-2,2-dimethylcyclopropanecarboxylate]
Observed % mortality Gamma (Heliothis virescens; Gamma alone 0.25 ppm): 28%
Observed % mortality Gamma (Heliothis virescens; Gamma alone 0.50 ppm): 28%
Observed % mortality Gamma (Heliothis virescens; Gamma alone 1.00 ppm): 28%
mortality at 0.25 ppm (Heliothis virescens; Heliothis virescens, in Gossypium hirsutum, 72 h, read-out: Observed % mortality Gamma, Gamma alone 0.25 ppm): 32%
mortality at 0.5 ppm (Heliothis virescens; Heliothis virescens, in Gossypium hirsutum, 72 h, read-out: Observed % mortality Gamma, Gamma alone 0.50 ppm): 32%
mortality at 1 ppm (Heliothis virescens; Heliothis virescens, in Gossypium hirsutum, 72 h, read-out: Observed % mortality Gamma, Gamma alone 1.00 ppm): 46%
mortality at 0.025 ppm (Spodoptera littoralis; [2]): 0%
mortality at 0.05 ppm (Spodoptera littoralis; [2]): 25%
mortality at 0.1 ppm (Spodoptera littoralis; [2]): 90%
mortality at 0.25 ppm (Myzus persicae; [3]): 70%
mortality at 0.5 ppm (Myzus persicae; [3]): 69%
mortality at 1 ppm (Myzus persicae; [3]): 98%

COC(=O)N(C(=O)N1CO[C@@]2(C(=O)OC)Cc3cc(Cl)ccc3C2=N1)c1ccc(OC(F)(F)F)cc1 [Indoxacarb]
Observed % mortality Other ai (Heliothis virescens; other ai alone 0.20 ppm): 26% and 22%
Observed % mortality Other ai (Heliothis virescens; other ai alone 0.80 ppm): 26% and 46%

CN1COCN(Cc2cnc(Cl)s2)/C1=N\[N+](=O)[O-] [Thiamethoxam, thiamethoxam]
mortality at 1.25 ppm (Myzus persicae; [1]): 70%
mortality at 2.5 ppm (Myzus persicae; [1]): 92%
mortality at 5 ppm (Myzus persicae; [1]): 94%

abamectin
Observed % mortality Other ai (Heliothis virescens; other ai alone 0.25 ppm): 0%
Observed % mortality Other ai (Heliothis virescens; other ai alone 0.50 ppm): 0%
Observed % mortality Other ai (Heliothis virescens; other ai alone 1.00 ppm): 0%

emamectin benzoate
Observed % mortality Other ai (Heliothis virescens; other ai alone 0.13 ppm): 97% and 96%
Observed % mortality Other ai (Heliothis virescens; other ai alone 0.25 ppm): 97% and 96% and 99%
Observed % mortality Other ai (Heliothis virescens; other ai alone 0.50 ppm): 96% and 99%
Observed % mortality Other ai (Spodoptera littoralis; other ai alone 0.0025 ppm): 0%
Observed % mortality Other ai (Spodoptera littoralis; other ai alone 0.005 ppm): 6%
Observed % mortality Other ai (Spodoptera littoralis; other ai alone 0.01 ppm): 0%
